Assay results reported in patent US20120213720A1, “Prodrug composition for skin with twin protecting groups bound by disubstituted benzene” (priority 2011, published 2012).

Columns and labels:
[1] = test system: melanin synthesis; conditions: cited from earlier work
[2] = test system: melanocytes in the skin; conditions: cited from earlier work
[3] = test system: skin; conditions: cited from earlier work
[4] = test system: facial freckles and the normal facial skin; experiment: Clinical test of whitening effect of DAP-containing cream, smart skin analysis system; type: in vivo
Protocol: Moreover, for proving the whitening effect of the DAP-containing prescription according to the present invention, a clinical test was performed and used the detection device shown in Table 7. Six subjects joining the test received the cream preparation containing 1% or 2% DAP on facial freckles and the normal facial skin twice a day for consecutive […] (2010 Nov. 24-2010 Dec. 15), and the whitening effect was evaluated. [table] According to the foregoing clinical test, data graphs with respect to the disclosed prodrug composition as shown in FIG. 2 through FIG. 7 have been made, while the photographs showing the tested sites of several subjects are reflected in FIG. 8 through FIG.

Row | Compound | anti-melanin effect, times higher than that of HQ ([1]; relative to HQ) | anti-melanin effect, times higher than that of normal arbutin ([1]; relative to normal arbutin) | safety concentration relative to HQ [2] | time to desired clinical effects ([3]; DA solutions with proper concentration) | effect of whitening the skin ([3]; local usage, clinical research for 8 weeks) | side effects (toxic to melanocytes, irritative, allergenic to the skin) ([4]; four-week clinical test, 1% or 2% DAP cream twice a day) | whitening effect on the normal skin ([4]; prescription containing 1% DAP, consecutive four weeks, left cheek) | whitening effect on the solar lentigines ([4]; prescription containing 2% DAP, consecutive four weeks, left cheek)
1 | Oc1ccc(OC2CCCCO2)cc1 (centres unmarked) [DA, deoxy-arbutin] | 10 times | 350 times | four times higher | three weeks | progressive and apparent effect of whitening the skin |  |  | 
2 | c1cc(OC2CCCCO2)ccc1OC1CCCCO1 (centres unmarked) [DAP, 1,4-bis(tetrahydro-2H-pyran-2-yloxy)benzene] |  |  |  |  |  | without side effects | up to 19% | up to 46%
